Reference: patent US10597388B2, “Pyridazinone herbicides” (FMC CORPORATION, priority 2014, dated 2020)

Columns and labels:
Test in all cases: Test C greenhouse herbicide test, pre- and postemergence
Assay type in all cases: in vivo
[1] = tested on: nutsedge, yellow (yellow nutsedge, Cyperus esculentus)
Summary of the method: (§1)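 Pre- and postemergence greenhouse screen; values are visual control ratings, 0 meaning no effect and 100 complete kill, assigned relative to untreated plants after 13 to 15 d.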

[2] = tested on: ragweed (common ragweed, Ambrosia elatior)
Summary of the method: as §1

corn (Zea mays) = tested on: corn (Zea mays)
Summary of the method: as §1

[3] = tested on: velvetleaf (Abutilon theophrasti)
Summary of the method: as §1

[4] = tested on: ryegrass, Italian (Italian ryegrass, Lolium multiflorum)
Summary of the method: as §1

[5] = tested on: lambsquarters (Chenopodium album)
Summary of the method: as §1

soybean (Glycine max) = tested on: soybean (Glycine max)
Summary of the method: as §1

[6] = tested on: galium (catchweed bedstraw, Galium aparine)
Summary of the method: as §1

[7] = tested on: crabgrass, large (large crabgrass, Digitaria sanguinalis)
Summary of the method: as §1

[8] = tested on: wheat (winter wheat, Triticum aestivum)
Summary of the method: as §1

[9] = tested on: oilseed rape (Brassica napus)
Summary of the method: as §1

[10] = tested on: foxtail, giant (giant foxtail, Setaria faberii)
Summary of the method: as §1

[11] = tested on: barnyardgrass (Echinochloa crus-galli)
Summary of the method: as §1

[12] = tested on: blackgrass (Alopecurus myosuroides)
Summary of the method: as §1

[13] = tested on: pigweed (Amaranthus retroflexus)
Summary of the method: as §1

[14] = Postemergence, 31 g ai/ha, 0 to 100 scale (0 no effect, 100 complete control)
[15] = Postemergence, 125 g ai/ha, scale 0 to 100, 0 is no effect, 100 is complete control
[16] = Postemergence, 250 g ai/ha, scale 0 to 100, 0 no effect, 100 complete control, 13 to 15 d
[17] = Preemergence, 31 g ai/ha, scale 0 to 100, 0 is no effect, 100 is complete control
[18] = Preemergence, 62 g ai/ha, scale 0 to 100, 0 is no effect, 100 is complete control
[19] = Preemergence, 125 g ai/ha, scale 0 to 100, 0 is no effect, 100 is complete control
[20] = Preemergence, 250 g ai/ha, scale 0 to 100, 0 no effect, 100 complete control
[21] = postemergence, 62 g ai/ha, scale 0 to 100, 0 no effect, 100 complete control

## Cc1nn(C)c(=O)c(-c2c(C)sc3ccc(Br)cc23)c1O [Compound 22]
[1]; [14]
  Nutsedge, Yellow plant response rating: 35
[1]; [15]
  Plant response rating, Nutsedge, Yellow: 65
[1]; [16]
  Plant response rating, Nutsedge, Yellow: 65
[1]; [17]
  Plant response rating, Nutsedge, Yellow: 55
[1]; [18]
  Plant response rating, Nutsedge, Yellow: 45
[1]; [19]
  Plant response rating, Nutsedge, Yellow: 70
[1]; [20]
  Nutsedge, Yellow plant response rating: 70
[1]; [21]
  Nutsedge, Yellow plant response rating: 50
[2]; [14]
  Ragweed plant response rating: 70
[2]; [15]
  Plant response rating, Ragweed: 90
[2]; [16]
  Plant response rating, Ragweed: 100
[2]; [17]
  Plant response rating, Ragweed: 30
[2]; [18]
  Plant response rating, Ragweed: 75
[2]; [19]
  Plant response rating, Ragweed: 90
[2]; [20]
  Ragweed plant response rating: 100
[2]; [21]
  Ragweed plant response rating: 75
Corn (Zea mays); [14]
  Corn plant response rating: 0
Corn (Zea mays); [15]
  Plant response rating, Corn: 5
Corn (Zea mays); [16]
  Plant response rating, Corn: 5
Corn (Zea mays); [17]
  Plant response rating, Corn: 0
Corn (Zea mays); [18]
  Plant response rating, Corn: 0
Corn (Zea mays); [19]
  Plant response rating, Corn: 0
Corn (Zea mays); [20]
  Corn plant response rating: 35
Corn (Zea mays); [21]
  Corn plant response rating: 5
[3]; [14]
  Velvetleaf plant response rating: 20
[3]; [15]
  Plant response rating, Velvetleaf: 80
[3]; [16]
  Plant response rating, Velvetleaf: 80
[3]; [18]
  Plant response rating, Velvetleaf: 60
[3]; [19]
  Plant response rating, Velvetleaf: 75
[3]; [20]
  Velvetleaf plant response rating: 98
[3]; [21]
  Velvetleaf plant response rating: 50
[4]; [14]
  Ryegrass, Italian plant response rating: 60
[4]; [15]
  Plant response rating, Ryegrass, Italian: 90
[4]; [16]
  Plant response rating, Ryegrass, Italian: 90
[4]; [17]
  Plant response rating, Ryegrass, Italian: 90
[4]; [18]
  Plant response rating, Ryegrass, Italian: 90
[4]; [19]
  Plant response rating, Ryegrass, Italian: 95
[4]; [20]
  Ryegrass, Italian plant response rating: 95
[4]; [21]
  Ryegrass, Italian plant response rating: 70
[5]; [14]
  Lambsquarters plant response rating: 70
[5]; [15]
  Plant response rating, Lambsquarters: 90
[5]; [16]
  Plant response rating, Lambsquarters: 90
[5]; [17]
  Plant response rating, Lambsquarters: 25
[5]; [18]
  Plant response rating, Lambsquarters: 45
[5]; [19]
  Plant response rating, Lambsquarters: 90
[5]; [20]
  Lambsquarters plant response rating: 90
[5]; [21]
  Lambsquarters plant response rating: 85
Soybean (Glycine max); [14]
  Soybean plant response rating: 0
Soybean (Glycine max); [15]
  Plant response rating, Soybean: 0
Soybean (Glycine max); [16]
  Plant response rating, Soybean: 0
Soybean (Glycine max); [18]
  Plant response rating, Soybean: 0
Soybean (Glycine max); [19]
  Plant response rating, Soybean: 0
Soybean (Glycine max); [20]
  Soybean plant response rating: 5
Soybean (Glycine max); [21]
  Soybean plant response rating: 0
[6]; [14]
  Galium plant response rating: 90
[6]; [15]
  Plant response rating, Galium: 95
[6]; [16]
  Plant response rating, Galium: 95
[6]; [17]
  Plant response rating, Galium: 90
[6]; [18]
  Plant response rating, Galium: 90
[6]; [19]
  Plant response rating, Galium: 95
[6]; [20]
  Galium plant response rating: 95
[6]; [21]
  Galium plant response rating: 90
[7]; [14]
  Crabgrass, Large plant response rating: 0
[7]; [15]
  Plant response rating, Crabgrass, Large: 5
[7]; [16]
  Plant response rating, Crabgrass, Large: 5
[7]; [17]
  Plant response rating, Crabgrass, Large: 0
[7]; [18]
  Plant response rating, Crabgrass, Large: 0
[7]; [19]
  Plant response rating, Crabgrass, Large: 0
[7]; [20]
  Crabgrass, Large plant response rating: 35
[7]; [21]
  Crabgrass, Large plant response rating: 5
[8]; [14]
  Wheat plant response rating: 0
[8]; [15]
  Plant response rating, Wheat: 5
[8]; [16]
  Plant response rating, Wheat: 0
[8]; [18]
  Plant response rating, Wheat: 0
[8]; [19]
  Plant response rating, Wheat: 0
[8]; [20]
  Wheat plant response rating: 0
[8]; [21]
  Wheat plant response rating: 0
[9]; [14]
  Oilseed Rape plant response rating: 5
[9]; [15]
  Plant response rating, Oilseed Rape: 90
[9]; [16]
  Plant response rating, Oilseed Rape: 75
[9]; [17]
  Plant response rating, Oilseed Rape: 0
[9]; [18]
  Plant response rating, Oilseed Rape: 5
[9]; [19]
  Plant response rating, Oilseed Rape: 5
[9]; [20]
  Oilseed Rape plant response rating: 80
[9]; [21]
  Oilseed Rape plant response rating: 15
[10]; [14]
  Foxtail, Giant plant response rating: 10
[10]; [15]
  Plant response rating, Foxtail, Giant: 40
[10]; [16]
  Plant response rating, Foxtail, Giant: 35
[10]; [17]
  Plant response rating, Foxtail, Giant: 5
[10]; [18]
  Plant response rating, Foxtail, Giant: 15
[10]; [19]
  Plant response rating, Foxtail, Giant: 55
[10]; [20]
  Foxtail, Giant plant response rating: 85
[10]; [21]
  Foxtail, Giant plant response rating: 15
[11]; [14]
  Barnyardgrass plant response rating: 5
[11]; [15]
  Plant response rating, Barnyardgrass: 10
[11]; [16]
  Plant response rating, Barnyardgrass: 15
[11]; [17]
  Plant response rating, Barnyardgrass: 5
[11]; [18]
  Plant response rating, Barnyardgrass: 5
[11]; [19]
  Plant response rating, Barnyardgrass: 5
[11]; [20]
  Barnyardgrass plant response rating: 60
[11]; [21]
  Barnyardgrass plant response rating: 5
[12]; [14]
  Blackgrass plant response rating: 0
[12]; [15]
  Plant response rating, Blackgrass: 20
[12]; [16]
  Plant response rating, Blackgrass: 20
[12]; [17]
  Plant response rating, Blackgrass: 5
[12]; [18]
  Plant response rating, Blackgrass: 20
[12]; [19]
  Plant response rating, Blackgrass: 40
[12]; [20]
  Blackgrass plant response rating: 45
[12]; [21]
  Blackgrass plant response rating: 0
[13]; [14]
  Pigweed plant response rating: 85
[13]; [15]
  Plant response rating, Pigweed: 90
[13]; [16]
  Plant response rating, Pigweed: 98
[13]; [17]
  Plant response rating, Pigweed: 60
[13]; [18]
  Plant response rating, Pigweed: 100
[13]; [19]
  Plant response rating, Pigweed: 100
[13]; [20]
  Pigweed plant response rating: 100
[13]; [21]
  Pigweed plant response rating: 75
